In patent US9676823B2, “Selective delivery of molecules into cells or marking of cells in diseased tissue regions using environmentally sensitive transmembrane peptide” (priority 2005, dated 2017):
Starred links: 1 amine or outer side, 2 acyl side, 3 side chain; linkers in the order of their positions; H or OH if unused. Positions of bridges follow the written chain, without caps; N, C: chain ends. Non-standard residues stand in square brackets, D forms with d. Residues, ends and D or L forms follow the SMILES beside them. No end group written: not given here. Trp(2-yl) = O=C([C@H](Cc1c([*:3])[nH]c2ccccc12)N[*:1])[*:2]; {TAMRA} = TAMRA dye attached N-terminally via two o linkers; {Cys} = C-terminal o linker then cysteine amide; Leu(4R-OH,5-OH) = C[C@](O)(CO)C[C@H](N)C(=O)O; cisHyp = O=C(O)[C@@H]1C[C@H](O)CN1

Experiments:
Human tumor MDA-MB-231 = experiment: Whole-body fluorescence imaging of nude mice bearing MDA-MB-231 tumor; type: in vivo, mouse; settings: 100 μl of 50 μM into tail vein, 3 mm tumor; time point not stated
Procedure: To study the pHLIP distribution in vivo, covalently attached to the pHLIP near […] infrared fluorescent dye Cy5.5 was injected into mice bearing tumor and performed whole-body fluorescence imaging. Human tumor MDA-MB-231 was originated by injection of tumor cells (2×10^7 cells/flank/0.2 ml) in the right flank of adult athymic female nude mice. When the tumor reached the size of 3 mm in diameter, 100 μl of 50 μM of Cy5.5 alone or Cy5.5 covalently attached to the pHLIP was given as a single injection into vein tail. The imaging was performed immediately, after 1, 2, 4 hour and next day after 24 hours (FIGS. 9 and 10). The dye and peptide-dye accumulated in liver and kidney, the organs, which usually readily absorb any compounds. The ratios of (liver+kidney)/tumor were 5.9 and 3.6 in mice to which dye alone and pHLIP-dye were injected accumulation for mice. […] The accumulation of pHLIP-Cy5.5 in tumor was in 1.6 times higher than accumulation of dye alone. The ration of (liver+kidney)/tumor was 1.6 and 2.6 for pHLIP-Cy5.5 and Cy5.5 alone, respectively.
Human breast adenocarcinoma MDA-MB-231 (HTB-26, ATCC) cells was cultured in Leibovitz's L-15 medium supplemented with 10% fetal bovine serum, 100 units/ml penicillin, 0.1 mg/ml streptomycin, 2 mM glutamine in humidified atmosphere of 5% CO2 and 95% air at 37° C. […]

HeLa cells [1] = experiment: Translocation of PNA into HeLa cells (fluorescence microscopy); type: cell-based, human; settings: PNA without pHLIP, pH 7.4 or 6.5 (data not shown)
HeLa cells [2] = experiment: Translocation and release of Phalloidin-TRITC in HeLa cells (fluorescence microscopy of actin filaments); type: cell-based, human; settings: pH 6.0-7.4, in the presence or absence of peptide (not conjugated)
Text: To test the ability of pHLIP to translocate peptides across the cell membrane a water soluble cyclic peptide, phalloidin, from the Amanita phalloicles mushroom was chosen. […] Fluorescent phalloidin is commonly used to label actin filaments in permealized cells. Actin filaments stained with fluorescent phalloidin have an easily recognizable filamentous pattern, which cannot be mistaken for the other cellular structures, organelles or membrane staining. Therefore the delivery of fluorescent phalloidin by pHLIP into live cells can easily be verified by fluorescence microscopy. Fluorescently labeled phalloidin (Phalloidin-TRITC) via an S-S bond to the C-terminus of pHLIP was conjugated using a bifunctional cross-linker. Cells were incubated with a pHLIP-S-S-Phalloidin-TRITC cleavable construct at different pHs and subsequently washed with cell culture medium solution, pH 7.4. […]
For the fluorescence microscopy studies, the cells were grown in 35 mm dishes with 10 mm glass bottom windows coated with collagen. […] The medium pH was measured before and after incubation. […] Fluorescent images were taken using an inverted epi-fluorescence microscope Olympus IX71. […] Each time fluorescence microscopy experiments were performed and observed the translocation of cargo by pHLIP, it was verified that the labeled cells were alive by using of dead cell marker SYTOX-Green (Molecular Probes).

HeLa cells [3] = experiment: Membrane leakage assay with cell-impermeable Phalloidin-TRITC and SYTOX-Orange; type: cell-based, human; settings: peptide up to 10 μM, 1 hr, pH 6.5 or 7.4
Procedure: (§1) The peptide's cytotoxicity and its ability to induce membrane leakage was investigated. […] Membrane leakage was tested by incubation of HeLa cells at various concentrations of peptide (up to 10 μM) at pH 7.4 and 6.5 for 1 hr, followed by the addition of cell-impermeable agents: Phalloidin-TRITC and nuclear-staining SYTOX-Orange. […] The uptake of Phalloidin-TRITC or SYTOX-Orange was 10 times less than the uptake in cells treated with triton, which used for cell membrane permeabilization.
HeLa cells were loaded in 96 well plates (2,000 cells per well), incubated for 24 hours in DMEM supplemented with 10% FBS, 100 units/ml penicillin, 0.1 mg/ml streptomycin, 2 mM glutamine in a humidified atmosphere of 5% CO2 and 95% air at 37° C. The growth medium was then replaced with PBS buffer containing 1 mM CaCl2 and 1 mM MgCl2 at pH7.4 or 6.5 and increasing amounts of the peptide (0.5, 2, 5 and 10 μM). After 1 hour, 2 μM of Phalloidin-TRITC and 0.5 μM of SYTOX-Orange (Molecular Probes) were added for 10 min and, then, washed with PBS buffer, pH7.4. The rhodamine fluorescence was measured at 580 nm with excitation at 544 nm by plate-reader. The cell membrane was subsequently disrupted by adding 0.5% Triton-100 and a new portion of the 2 μM of Phalloidin-TRITC and 0.5 μM of SYTOX-Orange followed by washing with PBS. The fluorescence signal was detected before and after washing, respectively. […]

mice = experiment: Toxicity study in mice, single intravenous injection; type: in vivo, mouse; settings: single intravenous injection 4 mg/kg, female and male mice, observed 6 weeks
Procedure: Preliminary toxicity study was carried out. 100 μl of 150 μM of peptide was given as a single injection in vein tail to 4 female C3D2F1 and 4 male C57/B1 mice. The final concentration was 4 mg/kg. Mice were observed by a veterinarian the day after an injection and during the next 6 weeks.

HeLa cells [4] = experiment: Cytotoxicity assay (CellTiter 96 AQueous One colorimetric); type: cell-based, human; settings: concentrations up to 16 μM, 24 hrs, physiological conditions
Procedure: as §1
Cytotoxicity was tested using a standard colorimetric assay according to an established protocol provided by Promega, Inc. HeLa cells were loaded in the wells of 96 well plates (20,000 cells per well), incubated for 24 hours in DMEM supplemented with 10% FBS, 100 units/ml penicillin, 0.1 mg/ml streptomycin, 2 mM glutamine in a humidified atmosphere of 5% CO2 and 95% air at 37° C. The growth medium was then replaced with the same medium but containing 1% of FBS and increasing amounts of pHLIP (0.5, 1, 2, 4, 8 and 16 μM). After 24 hours of incubation, the solution was replaced with DMEM and a colorimetric reagent (CellTiter 96 AQueous One Solution Assay) was added for 1 hour followed by measuring absorbance at 490 nm in the plate-reader. All samples were prepared in triplicate.

HeLa cells [5] = experiment: pH-dependent delivery of dansyl dye into live HeLa cells (fluorescence microscopy); type: cell-based, human; settings: dye alone, without peptide
Procedure: pHLIP conjugated via a disulfide bond to dansyl dye (FIG. 3a) was tested for delivery of the dye into live HeLa cells at different pHs (FIG. 3b). The cells were incubated with the fluorescently-labeled peptide for 15 min at pH 5.5, 6.5, 7.0 or 7.4 and then washed at pH 7.4 to remove any reversibly bound peptide. […] The relative uptakes were 18%, 48%, 78% and 100% at pH7.4, 7.0, 6.5 and pH5.5, respectively.
For the fluorescence microscopy studies, the cells were grown in 35 mm dishes with 10 mm glass bottom windows coated with collagen. Cells were washed with PBS buffer containing 1 mM CaCl2 and 1 mM MgCl2 with pH 5.5, 6.5, 7.0 or 7.4 and then incubated in PBS at the experimental pH in the absence or presence of varied concentrations (0.1-7 μM) of the pHLIP-S-S-dansyl, pHLIP-dye (TexasRed or Rhodamine), pHLIP-S-S-Phalloidin-TRITC, pHLIP-Phalloidin-TRITC or pHLIP-S-S-PNA-TAMRA constructs. The medium pH was measured before and after incubation. The time of incubation was varied from 15 to 60 min. […] Fluorescent images were taken using an inverted epi-fluorescence microscope Olympus IX71. […] Each time fluorescence microscopy experiments were performed and observed the translocation of cargo by pHLIP, it was verified that the labeled cells were alive by using of dead cell marker SYTOX-Green (Molecular Probes).

actin filaments = settings: cited from earlier work
HeLa cells [6] = settings: literature report; cited from earlier work

For `CCN1\C(=C/C=C/C=C/C2=[N+](CCCCCC(=O)O)c3ccc4c(S(=O)(=O)O)cc(S(=O)(=O)O)cc4c3C2(C)C)C(C)(C)c2c1ccc1c(S(=O)(=O)[O-])cc(S(=O)(=O)O)cc21` [Cy5.5], the “ratio of (liver+kidney)/tumor, first statement” value (Human tumor MDA-MB-231) was 5.9 and the “ratio of (liver+kidney)/tumor, second statement” value (Human tumor MDA-MB-231) was 2.6.

For “TAMRA-o-o-CATAGTATAAGT-o-Cys-NH2 (all peptide nucleic acid (PNA), 5' {TAMRA}, 3' {Cys}) [PNA-TAMRA]”, the “translocation through the cell membrane” value (HeLa cells [1]) was “No translocation”.

In the case of Phalloidin-TRITC, the “fluorescent staining of actin filaments” value (HeLa cells [2]) is reported as “did not give fluorescent staining of actin filaments”.

In the case of “AAEQNPIYWARYADWLFTTPLLLLDLALLVDADEGTCG [pHLIP]”, the “uptake of Phalloidin-TRITC or SYTOX-Orange in peptide-treated cells” value (HeLa cells [3]) is reported as “no increase in uptake”, the “uptake of Phalloidin-TRITC or SYTOX-Orange relative to cells treated with triton” value (HeLa cells [3]) is reported as 10 times less and the “physiological and behavioral changes” value (mice) is reported as “No physiological and behavioral changes”. The cell viability (HeLa cells [4]) was “does not affect cell viability”.

For dansyl, the penetration of cells (HeLa cells [5]) was “does not penetrate cells”.

In the case of `C[C@@H]1NC(=O)[C@H](C[C@@](C)(O)CO)NC(=O)[C@@H]2Cc3c([nH]c4ccccc34)SC[C@H](NC(=O)[C@@H]([C@H](C)O)NC1=O)C(=O)N1C[C@@H](O)C[C@H]1C(=O)N[C@@H](C)C(=O)N2` [Phalloidin] (cyclo(A[dT]C[cisHyp]A[Trp(2-yl)][Leu(4R-OH,5-OH)]); thioether 3-6), the “lowering of the critical concentration for actin polymerization” value (actin filaments) is listed as “up to 30 fold”.

For `C/C1=C\[C@H](C)C[C@H](C)OC(=O)C[C@H](c2ccc(O)cc2)NC(=O)[C@@H](Cc2c(Br)[nH]c3ccccc23)N(C)C(=O)[C@H](C)NC(=O)[C@@H](C)C1` [Jasplakinolide], the “multinucleation of cells (reported)” value (HeLa cells [6]) is listed as “appearance of multinucleated cells”.
